Experimental data from PMC2867821 (Molecular Cancer, 2010).
Where two headings read alike, the source gives them in different places. One block for each compound: values may come before it. Residues, ends and D or L forms follow the SMILES beside them. *: point of attachment. Cbz = O=C(OCc1ccccc1)*; CH2F = FC*

Key:
SK-MEL-110 [1] = assay: RGDS anti-proliferative effect after pre-treatment with caspase inhibitor; assay type: cell-based, human; conditions: Z-VAD-FMK 50 μM, 2 h pre-treatment, then RGDS; p < 0.005 vs FGF-2 in the presence of Z-VAD-FMK
SK-MEL-110 [2] = tested on: SK-MEL-110
[3] = target: T1, GST-C-terminus-survivin (Lys90-Asp142) (Homo sapiens, UniProt O15392); assay: Solid phase assay, GST-fusion protein; assay type: binding
T1 construct: C-terminus (Lys90-Asp142); made in house; host or cells: E. coli BL21(DE3)pLysS
Experimental: (§1) Three independent experiments were performed.
(§2) Full length survivin and both N-terminus (Met1-Gly99) or C-terminus (Lys90-Asp142) were PCR amplified and cloned, using EcoRI and BamHI restriction sites, in pGex6P2 (GE Healthcare) for expression of GST fusion proteins in E. coli BL21(DE3)pLysS (PROMEGA, Southampton, United Kingdom).
(§3) Briefly, microtiter plates (Costar, Cambridge, MA) were coated with 175 nM (100 μl/well) recombinant GST-fusion proteins diluted in AC7.5 buffer for 4 h at RT. […] After washing four times and incubation for 1 h at RT with 100 μl/well Vectastain-ABC Reagent (Vector Laboratories, Burlingame, CA), wells were stained with the ELISA Amplification System (Invitrogen, Carlsbad, CA) according to manufacturer's instructions and absorption at 495 nm (A495) was determined. Specific binding was computed by subtracting nonspecific from total binding at each concentration. Curve fit was carried out according to the following one-site specific bind equation (GraphPad Prism-4 software):(1) [drawing 1]
(§4) where X is ligand concentration, Y is the specific binding, Bmax is the maximum specific binding in the same units as Y, Kd is the equilibrium binding constant, in the same units as X.

GST-Full length survivin = GST-Full length survivin (Homo sapiens, UniProt O15392); assay: Solid phase assay, GST-fusion protein; assay type: binding; design: Full length survivin and both N-terminus (Met1-Gly99) or C-terminus (Lys90-Asp142) were PCR amplified and cloned; made in house; host or cells: E. coli BL21(DE3)pLysS
Experimental: as §1, §2, §3, §4

SK-MEL-110 [4] = assay: Proliferation of SK-MEL-110 on collagen-IV with FGF-2 (cell count); assay type: cell-based, human; conditions: 500 μg/ml, 48 h, FGF-2 10 ng/ml
Experimental: Representative images are reported. […] Three independent experiments were performed.

survivin = tested on: survivin; design: method as in PMID 17389612, PMID 18537980; conditions: wide range of tumor cells; cited from earlier work
active caspase-3 = assay: Caspase-3 activation by confocal microscopy; assay type: cell-based, human; conditions: 500 μg/ml, 48 h, FGF-2; anti-active caspase-3 antibody
SK-MEL-110 [5] = assay: Peptide internalization in SK-MEL-110 by FACS (PE-avidin); conditions: biotinylated peptide

T1 sequence (O15392 90-142): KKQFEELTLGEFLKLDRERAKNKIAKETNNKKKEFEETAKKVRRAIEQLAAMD
Sequence of GST-Full length survivin (O15392 whole entry, the tested form may be a part): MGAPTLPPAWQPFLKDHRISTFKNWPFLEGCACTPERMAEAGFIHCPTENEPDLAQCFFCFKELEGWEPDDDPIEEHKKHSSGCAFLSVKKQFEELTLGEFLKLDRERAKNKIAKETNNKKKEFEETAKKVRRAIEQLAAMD
Experimental for SK-MEL-110 and HUVEC: Cytoplasmic lysates were spotted onto nitrocellulose, blocked with 5% milk in TPBS (0.1% Tween 20 in PBS) and incubated for 1 h at RT with a Vectastain ABC-peroxidase kit (Vector) followed by chemiluminescence reaction and exposure to Kodak film (Eastman Kodak). Interaction was quantified by densitometry (GS 710; Bio-Rad) and analyzed using the "Quantity one" software (Bio-Rad).
Three independent experiments were carried out.

Compound: COC(=O)C[C@H](NC(=O)[C@H](C)NC(=O)[C@@H](NC(=O)OCc1ccccc1)C(C)C)C(=O)CF [Z-VAD-FMK] (Cbz-Val-Ala-Asp(OMe)-CH2F)
- effect on RGDS anti-proliferative action (SK-MEL-110 [1]): significantly abolished the RGDS anti-proliferative effect

Compound: NC(N)=NCCC[C@H](N)C(=O)NCC(=O)N[C@@H](CC(=O)O)C(=O)N[C@@H](CO)C(=O)O [RGDS, Arg-Gly-Asp-Ser]
- internalization kinetics (SK-MEL-110 [2]): in a time-dependent manner
- Kd [3]: 30 µM
- Kd (GST-Full length survivin): 27.5 µM
- inhibition of FGF-2-induced proliferation (SK-MEL-110 [4]; collagen-IV 50 μg/ml, mean ± SD of 5 experiments in duplicate, RGDS p < 0.005): 46 ± 16%
- internalization in melanoma cells vs HUVEC (SK-MEL-110 and HUVEC): markedly higher in melanoma cells vs HUVEC

Compound: Cc1ccc(-c2cc(C(F)(F)F)nn2-c2ccc(S(N)(=O)=O)cc2)cc1 [colecoxib]
- survivin expression (survivin): down-regulate survivin expression

- caspase-3 activation (active caspase-3): no effect on caspase-3 activation
- internalization relative to RGDS (less than RGDS) (SK-MEL-110 [5]; 24 h, RGES less than RGDS): 25%
- positive cells (internalization) (SK-MEL-110 [5]; 24 h incubation, PE-avidin, FACS, three independent experiments): about 30%
- internalization kinetics (SK-MEL-110 [5]; 2, 6, 16 and 24 h, FACS): internalized with slower kinetics
Compound: Arg-Gly-Glu-Ser [RGES, RGES as control (Sigma-Aldrich)]
- anti-proliferative effect (SK-MEL-110 [4]; collagen-IV): no anti-proliferative effect
